How the values were obtained:
hTREX1 = target: T1, hTREX1 (Homo sapiens, UniProt Q9NSU2); experiment: hTREX1 HCT116 Cell Assay (HCT116 dual cells, Lucia luciferase reporter of Type I interferon induction); type: cell-based; conditions: TREX1i 4 h before pBR322/BstNI transfection, read after 48 h
T1 construct: host or cells: HCT116 dual cells
T1 sequence (Q9NSU2 1-314): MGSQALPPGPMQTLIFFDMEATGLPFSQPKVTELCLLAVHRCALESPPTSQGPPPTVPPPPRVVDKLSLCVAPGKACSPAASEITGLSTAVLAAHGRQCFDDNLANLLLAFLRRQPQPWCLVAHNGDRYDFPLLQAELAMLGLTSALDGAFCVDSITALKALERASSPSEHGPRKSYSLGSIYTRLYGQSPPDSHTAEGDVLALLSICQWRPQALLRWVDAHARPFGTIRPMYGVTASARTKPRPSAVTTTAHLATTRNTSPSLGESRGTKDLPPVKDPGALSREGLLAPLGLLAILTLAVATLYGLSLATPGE
Text: HCT116 dual cells (Invivogen, San Diego, CA, USA) are derived from the human HCT116 colorectal carcinoma cell line. Cells have been selected for the stable integration of SEAP and Luciferase reporter genes, which expression is under the control of 5 tandem response elements for NF-KB/AP1 and STAT1/STAT2, respectively. The cell line was used to monitor Type I interferon induction and subsequent signaling by measuring the activity of the Lucia luciferase secreted in the culture medium.
HCT116 cells were plated in 96-well plate(s) at 40,000 cells/well in 100 uL DMEM supplemented with 10% FBS and 25 mM Hepes (pH 7.2-7.5). After overnight settling, cells were treated with TREX1i for 4 h (maximum DMSO fraction was 0.1%) before 1 ug/mL pBR322/BstNI restriction digest (New England Biolabs, Ipswich, MA, USA) was transfected with Lipofectamine LTX (ThermoFisher, Grand Island, NY, USA), according to product manual recommendations. Briefly, Lipofectamine LTX (0.35 uL/well) was diluted in OptiMEM (5 uL/well). pBR322/BstNI (100 ng/well) was diluted in OptiMEM (5 uL/well) before Plus reagent (0.1 uL/100 ng DNA) was added. After 5 min incubation at room temperature, the DNA mixture was mixed dropwise with the diluted Lipofectamine LTX. After an additional 10 min incubation, the transfection mix (10 uL/well) was added to the cells. Cells were maintained at 37 C for 48 h before monitoring the Lucia Luciferase activity from the cell culture medium.

[1] = target: T2, human TREX2 (residues M44-A279) (Homo sapiens, UniProt Q9BQ50); experiment: hTREX2 Biochemical Assay (fluorescence, dsDNA substrate degradation); conditions: biochemical selectivity for hTREX1 vs hTREX2
T2 construct: human TREX2 (residues M44-A279, expressed in E. coli); made in house; host or cells: E. coli
T2 sequence (Q9BQ50 44-279 isoform Q9BQ50-1): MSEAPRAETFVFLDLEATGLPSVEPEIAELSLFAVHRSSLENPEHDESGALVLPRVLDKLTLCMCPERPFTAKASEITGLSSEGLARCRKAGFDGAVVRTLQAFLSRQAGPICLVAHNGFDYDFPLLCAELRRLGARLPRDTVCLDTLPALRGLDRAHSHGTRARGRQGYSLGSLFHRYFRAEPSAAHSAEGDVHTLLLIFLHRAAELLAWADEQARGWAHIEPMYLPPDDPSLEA
Summary of the method: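 N-His-Tev E. coli enzyme (50 pM) pre-incubated with compound 4 h at 25 °C, then 60 nM TEX615/quencher dsDNA added; 18 h at 25 °C, pH 7.4 Tris buffer with 5 mM MgCl2, 1.0% DMSO. EDTA-quenched; fluorescence 570 ex/615 em from liberated fluorophore, 10-point dose-response.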

full length human TREX1 = target: T3, full length human TREX1 (Homo sapiens, UniProt Q9NSU2); experiment: hTREX1 Biochemical Assay (fluorescence, dsDNA substrate degradation); conditions: biochemical, read-out: hTREX1 IC50
T3 construct: N-terminally His-Tev tagged full length human TREX1; made in house; host or cells: E. coli
T3 sequence (Q9NSU2 1-314): T1 sequence (Q9NSU2 1-314)
Summary of the method: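 Cleavage of 60 nM TEX615/quencher-labelled dsDNA in pH 7.4 Tris buffer with 5 mM MgCl2, 1.0% DMSO, run 18 hours at 25° C, EDTA-quenched; fluorescence read-out.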

full length mouse TREX1 = target: T4, full length mouse TREX1 (Mus musculus, UniProt Q91XB0); experiment: mTREX1 Biochemical Assay (fluorescence, dsDNA substrate degradation); conditions: biochemical, read-out: mTREX1 IC50
T4 construct: N-terminally His-Tev tagged full length mouse TREX1; made in house; host or cells: E. coli
T4 sequence (Q91XB0 1-314): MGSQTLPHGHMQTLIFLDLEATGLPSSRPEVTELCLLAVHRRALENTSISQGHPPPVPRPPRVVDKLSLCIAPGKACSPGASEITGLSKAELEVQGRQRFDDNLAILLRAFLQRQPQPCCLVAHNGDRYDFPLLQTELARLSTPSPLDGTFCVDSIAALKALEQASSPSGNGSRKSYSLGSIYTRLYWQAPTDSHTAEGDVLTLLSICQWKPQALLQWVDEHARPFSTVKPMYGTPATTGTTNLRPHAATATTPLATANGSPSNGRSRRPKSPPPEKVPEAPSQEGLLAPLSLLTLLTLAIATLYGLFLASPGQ
Summary of the method: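 Reaction run 18 h at 25° C. with 60 nM TEX615/quencher-labelled dsDNA and 6 pM mouse TREX1 in Tris buffer (pH 7.4, 5 mM MgCl2, 1.0% DMSO), enzyme having sat 4 h with compound across 10 concentrations. EDTA quench; substrate degradation measured as fluorescence increase.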

Row | Structure (SMILES) | IC50 (hTREX1) [nM] | hTREX1 vs hTREX2 selectivity [1] | IC50 (full length human TREX1) [nM] | IC50 (full length mouse TREX1) [nM]
1 | CC(c1nc(C(=O)Nc2cnoc2)c(O)c(=O)n1C)C(c1ccccc1C#N)c1ccnn1C (single isomer, unassigned) [Example 1 D1E1] | 10 to 100 | A (A = <25 fold selective for hTREX1) | 1 to 10 | 1 to 10
2 | CC(c1nc(C(=O)Nc2cnoc2)c(O)c(=O)n1C)C(c1cnn(C)c1)c1ccccc1C#N (single isomer, unassigned) [Example 2 D1E2] | > 100 | A (A = <25 fold selective for hTREX1) | > 10 | > 10
3 | CC(c1nc(C(=O)Nc2cnoc2)c(O)c(=O)n1C)C(c1cnn(C)c1)c1ccccc1C#N (single isomer, unassigned) [Example 2 D2E2] | > 100 | A (A = <25 fold selective for hTREX1) | > 10 | > 10
4 | Cc1nn(C)cc1C(c1ccccc1C#N)C(C)c1nc(C(=O)Nc2cnoc2)c(O)c(=O)n1C (single isomer, unassigned) [Example 3 D1E1] | < 10 | C (C = >50 fold selective for hTREX1) | < 1 | < 1
5 | Cc1c(C(c2ccccc2C#N)C(C)c2nc(C(=O)Nc3cnoc3)c(O)c(=O)n2C)cnn1C (single isomer, unassigned) [Example 4 D2E2] | > 100 | B (B = 25 to 50-fold selective for hTREX1) | 1 to 10 | > 10
6 | Cc1ccc(C(c2ccccc2C#N)C(C)c2nc(C(=O)Nc3cnoc3)c(O)c(=O)n2C)cn1 (single isomer, unassigned) [Example 5 D1E2] | < 10 | B (B = 25 to 50-fold selective for hTREX1) | < 1 | < 1
7 | Cc1cc(C(c2ccccc2C#N)C(C)c2nc(C(=O)Nc3cnoc3)c(O)c(=O)n2C)ccn1 (single isomer, unassigned) [Example 6 D1E1] | < 10 | C (C = >50 fold selective for hTREX1) | < 1 | < 1
8 | Cc1cc(C(c2ccccc2C#N)C(C)c2nc(C(=O)Nc3cnoc3)c(O)c(=O)n2C)ccn1 (single isomer, unassigned) [Example 6 D1E2] | > 100 | B (B = 25 to 50-fold selective for hTREX1) | 1 to 10 | > 10
9 | COCCn1cc(C(c2ccccc2C#N)C(C)c2nc(C(=O)Nc3cnoc3)c(O)c(=O)n2C)cn1 (single isomer, unassigned) [Example 9 D1E1] | 10 to 100 | C (C = >50 fold selective for hTREX1) | < 1 | 1 to 10
10 | COCCn1cc(C(c2ccccc2C#N)C(C)c2nc(C(=O)Nc3cnoc3)c(O)c(=O)n2C)cn1 (single isomer, unassigned) [Example 9 D2E1] | > 100 | C (C = >50 fold selective for hTREX1) | 1 to 10 | > 10
11 | CC(c1nc(C(=O)Nc2cnoc2)c(O)c(=O)n1C)C(c1cnn(CCN2CCNCC2)c1)c1ccccc1C#N (single isomer, unassigned) [Example 31 D1E1] | > 100 |  | < 1 | 1 to 10
12 | CC(c1nc(C(=O)Nc2cnoc2)c(O)c(=O)n1C)C(c1cnn(CCN2CCN(C)CC2)c1)c1ccccc1C#N (single isomer, unassigned) [Example 32 D1E1] | > 100 |  | < 1 | 1 to 10
13 | CC(c1nc(C(=O)Nc2cnoc2)c(O)c(=O)n1C)C(c1cnn(CCCN(C)C)c1)c1ccccc1C#N (single isomer, unassigned) [Example 34 D1E1] | > 100 |  | < 1 | 1 to 10
14 | CC(c1nc(C(=O)Nc2cnoc2)c(O)c(=O)n1C)C(c1cnn(CC(C)(C)O)c1)c1ccccc1C#N (single isomer, unassigned) [Example 36 D1E1] | > 100 |  | < 1 | 1 to 10
15 | COC(C)(C)Cn1cc(C(c2ccccc2C#N)C(C)c2nc(C(=O)Nc3cnoc3)c(O)c(=O)n2C)cn1 (single isomer, unassigned) [Example 37 D1E1] | 10 to 100 |  | < 1 | 1 to 10
16 | CC(c1nc(C(=O)Nc2cnoc2)c(O)c(=O)n1C)C(c1cnn(C(F)F)c1)c1ccccc1C#N (single isomer, unassigned) [Example 38 D2E2] | > 100 |  | 1 to 10 | > 10
17 | CC(c1nc(C(=O)Nc2cnoc2)c(O)c(=O)n1C)C(c1cocn1)c1ccccc1C#N (single isomer, unassigned) [Example 50 D1E1] | > 100 |  | 1 to 10 | > 10
18 | CC(c1nc(C(=O)Nc2cnoc2)c(O)c(=O)n1C)C(c1ncn(C)n1)c1ccccc1C#N (single isomer, unassigned) [Example 51 D1E2] | 10 to 100 |  | 1 to 10 | > 10
19 | CC(c1nc(C(=O)Nc2cnoc2)c(O)c(=O)n1C)C(c1ccccc1C#N)c1c(C#N)cnn1C (single isomer, unassigned) [Example 52 D1E1] | 10 to 100 |  | 1 to 10 | > 10
20 | CC(c1nc(C(=O)Nc2cnoc2)c(O)c(=O)n1C)C(c1ccccc1C#N)c1c(C#N)cnn1C (single isomer, unassigned) [Example 52 D2E1] | > 100 |  | > 10 | > 10
21 | CC(c1nc(C(=O)Nc2cnoc2)c(O)c(=O)n1C)C(c1cnn(C)c1)c1cc(F)ccc1Cl (single isomer, unassigned) [Example 61 D1E1] | < 10 |  | < 1 | 1 to 10
22 | Cc1nn(C)cc1C(c1cc(F)ccc1Cl)C(C)c1nc(C(=O)Nc2cnoc2)c(O)c(=O)n1C (single isomer, unassigned) [Example 62 D2E2] | < 10 |  | < 1 | 1 to 10
23 | CCn1ncc(C(c2ccc(F)cc2C#N)C(C)c2nc(C(=O)Nc3cnoc3)c(O)c(=O)n2C)c1C (single isomer, unassigned) [Example 65 D1E1] | < 10 |  | < 1 | < 1
24 | CCn1ncc(C(c2ccccc2C#N)C(C)c2nc(C(=O)Nc3cnoc3)c(O)c(=O)n2C)c1C (single isomer, unassigned) [Example 68 D1E1] | < 10 |  | < 1 | < 1
25 | Cc1nn(C)c(C)c1C(c1ccccc1C#N)C(C)c1nc(C(=O)Nc2cnoc2)c(O)c(=O)n1C (single isomer, unassigned) [Example 78 D2E1] | 10 to 100 |  | 1 to 10 | > 10
